We go through two molecules from US8084449B2, “Dual pharmacophores—PDE4-muscarinic antagonistics” (Glaxo Group Limited, priority 2008, dated 2011).

The subject of series [1] is human M1, M2 and M3 ACh receptors stably expressed in CHO cells. Kind of series: Calcium mobilization (FLIPR) IC50 determination for antagonists: inhibition of ACh induced muscarinic receptor activation. The class given is cell-based. Particulars: EC80 concentration of ACh, active if IC50 of between 33 uM and 10 nM or less, receptor subtype not specified for the statement. The source says: Studies to determine the effectiveness of antagonists to cause blockade of functional intracellular calcium fluxes following agonist (ACh) treatment of cloned human receptors. This system is used for characterizations of antagonist-receptor interactions using four distinct variations of the FLIPR methodology: (a) potency: IC50 determination, (b) potency: pA2 determination, (c) reversibility of antagonist-receptor interaction, or (d) confirmation of no functional agonist activity.
Cell Source The human M1-M3 receptors are cloned and stably expressed in Chinese Hamster Ovary (CHO) cells. The M2 receptors are co-expressed with the chimeric G protein, Gqi5.
Method of Culture: CHO-M1, CHO-Gqi5-M2 and CHO-M3 cells are cultured to confluence at 37° C. in a humidified incubator with 5% CO2/95% air. […] The emitted fluorescence from all 96 wells is measured simultaneously using a cooled CCD camera. […]
Cell plating: A microtiter plate based calcium mobilization FLIPR (Fluorometric Imaging Plate Reader, Molecular Devices, Sunnyvale Calif., [Schroeder K S, Neagle, B D. FLIPR: a new instrument for accurate, high throughput optical screening. J. Biomol. Screen. 1996; 1:75.]) assay is used for the functional characterization of compounds against M1, M2 (w/Gqi5) and M3 ACh receptors stably expressed in CHO cells. […]
(Calcium flux is commonly read through the fluorescence of an indicator in the cells.)

As usually defined, the melting point is the temperature, or range, at which the solid turns liquid.

In turn, `NC(=O)c1ccc(Cl)c(Br)c1` came in with a melting point of 146 to 147 °C.

For the molecule `CCc1nc2c(cnn2CC)c(NC2CCOCC2)c1CNC(=O)c1cccc(C(=O)NCc2ccc(OC)c(-c3cccc(CN4CCN[C@@H](C)C4)c3)c2)n1` [Example 157, N-{[1,6-Diethyl-4-(tetrahydro-2H-pyran-4-ylamino)-1H-pyrazolo[3,4-b]pyridin-5-yl]methyl}-N′-[(6-(methyloxy)-3′-{[(3S)-3-methyl-1-piperazinyl]methyl}-3-biphenylyl)methyl]-2,6-pyridinedicarboxamide], the “IC50 (compound pretreatment concentration which inhibits 50% of the ACh induced response), activity rating” value in series [1] is reported as “most active”.
